Assay [1] relates to Z138 mantle cell lymphoma tumour cell lines. Briefly: In vitro cytotoxicity, MTT assay. The class given is cell-based. Particulars: Homo sapiens, Z-138, 96 h, Z138 cells exposed to the test compounds for 96 hours; cell viability vs DMSO treated cells. An outline of the steps: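 Z138 cells exposed to compounds for 96 hours, then MTT added for 4 hours. Viable cells quantified from formazan absorbance at 540 nm.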
For orientation: Formazan colour is commonly taken as a measure of viable cells.

In assay [2] the target is T1, His-His-USP7 (aa208-560, |C315A|) (Homo sapiens, UniProt Q93009, C315A).
T1 construct: His-His-USP7 (aa208-560, |C315A|); His-His (N)
Briefly: Evaluation of the inhibition of USP7 by the Fluorescence Intensity (FLINT) readings. The class given is biochemical. As to conditions: 0.25 nM His-His-USP7, compound incubated 60 minutes at 30° C., 500 nM Ubiquitin-Rhodamine-110 substrate; 50% reduction in kinetic rate. An outline of the steps:
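0.25 nM His-His-USP7 (aa208–560, C315A) preincubated 60 min at 30 °C with compound in 100 mM Bicine pH 8.0, 0.01% Triton X-100, 1 mM TCEP, 10% DMSO. Reaction started with 500 nM ubiquitin-rhodamine-110 and fluorescence (Ex485/Em535) read every 3 min for 21 min. IC50 derived from kinetic-rate reduction over an 11-point curve, 4-parameter fit.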

Each structure is given as a SMILES string.

Usually IC50 stands for the concentration needed to halve the response being measured. A high value points to weaker potency in that assay.

T1 sequence (Q93009 208-560 C315A): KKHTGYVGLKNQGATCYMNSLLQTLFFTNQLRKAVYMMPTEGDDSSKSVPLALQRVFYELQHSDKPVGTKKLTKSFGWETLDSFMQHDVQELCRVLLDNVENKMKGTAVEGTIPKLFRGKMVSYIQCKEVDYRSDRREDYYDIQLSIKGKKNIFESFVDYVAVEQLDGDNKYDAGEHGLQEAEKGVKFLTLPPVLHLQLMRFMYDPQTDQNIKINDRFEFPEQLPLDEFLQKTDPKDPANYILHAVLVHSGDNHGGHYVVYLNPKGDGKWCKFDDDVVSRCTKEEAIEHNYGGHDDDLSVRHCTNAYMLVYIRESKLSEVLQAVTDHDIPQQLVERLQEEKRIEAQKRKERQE

Regarding `Nc1c(Oc2ccc(C3CCCCN3)cc2)ncn(CC2(O)CCN(C(=O)[C@@H]3CCC(F)(F)C[C@H]3c3ccccc3)CC2)c1=O` (stereo partly drawn) [Example 121, 5-amino-3-({1-[(1R,2R)-4,4-difluoro-2-phenylcyclohexane-1-carbonyl]-4-hydroxypiperidin-4-yl}methyl)-6-[4-(piperidin-2-yl)phenoxy]pyrimidin-4(3H)-one], the half-maximal inhibitory concentration (IC50) was found to be 0.546 µM in assay [1] and 0.00308 µM in assay [2].

In the case of `C#C[C@]1(F)CC[C@@H](C(=O)N2CCC(O)(Cn3cnc(Oc4ccc(F)cc4)c(N)c3=O)CC2)[C@H](c2ccccc2)C1` [Example 122, 5-amino-3-({1-[(1R,2R,4S)-4-ethynyl-4-fluoro-2-phenylcyclohexanecarbonyl]-4-hydroxypiperidin-4-yl}methyl)-6-(4-fluorophenoxy)-3,4-dihydropyrimidin-4-one], the results for the IC50 in assay [1] and in assay [2] were 0.0374 µM and 0.0263 µM, respectively.

Consider `C#C[C@@]1(F)CC[C@@H](C(=O)N2CCC(O)(Cn3cnc(Oc4ccc(F)cc4)c(N)c3=O)CC2)[C@H](c2ccccc2)C1` [Example 123, 5-amino-3-({1-[(1R,2R,4R)-4-ethynyl-4-fluoro-2-phenylcyclohexanecarbonyl]-4-hydroxypiperidin-4-yl}methyl)-6-(4-fluorophenoxy)-3,4-dihydropyrimidin-4-one], for which the IC50 in assay [1] turned out to be 0.0466 µM; in assay [2], 0.0354 µM.

Take `Nc1c(Oc2ccc(F)cc2)ncn(CC2(O)CCN(C(=O)[C@@H]3CC[C@](F)(C#Cc4cccnc4)C[C@H]3c3ccccc3)CC2)c1=O` [Example 130, 5-amino-3-[(1-{[(1R,2R,4R)-4-fluoro-2-phenyl-4-[2-(pyridin-3-yl)ethynyl]cyclohexyl]carbonyl}-4-hydroxypiperidin-4-yl)methyl]-6-(4-fluorophenoxy)pyrimidin-4-one]: the 50% inhibitory concentration (IC50) in assay [1] was found to be 0.0144 µM; in assay [2], 0.017 µM.

Turning to `Nc1c(Oc2ccc(F)cc2)ncn(CC2(O)CCN(C(=O)[C@@H]3CC[C@](F)(C#Cc4ccccn4)C[C@H]3c3ccccc3)CC2)c1=O` [Example 132, 5-amino-3-[(1-{[(1R,2R4R)-4-fluoro-2-phenyl-4-[2-(pyridin-2-yl)ethynyl]cyclohexyl]carbonyl}-4-hydroxypiperidin-4-yl)methyl]-6-(4-fluorophenoxy)pyrimidin-4-one], the IC50 is 0.00214 µM in assay [1] and 0.00329 µM in assay [2].

For the compound `Nc1c(Oc2ccc(F)cc2)ncn(CC2(O)CCN(C(=O)[C@@H]3CC[C@](F)(C#Cc4ccc(F)cn4)C[C@H]3c3ccccc3)CC2)c1=O` [Example 133, 5-amino-3-[(1-{[(1R,2R4R)-4-fluoro-4-[2-(5-fluoropyridin-2-yl)ethynyl]-2-phenylcyclohexyl]carbonyl}-4-hydroxypiperidin-4-yl)methyl]-6-(4-fluorophenoxy)pyrimidin-4-one], the IC50 in assay [1] worked out at 0.0187 µM; in assay [2], 0.0315 µM.

Regarding `Nc1c(Oc2ccc(F)cc2)ncn(CC2(O)CCN(C(=O)[C@@H]3CC[C@@](F)(C#Cc4ccc(F)cn4)C[C@H]3c3ccccc3)CC2)c1=O` [Example 134, 5-amino-3-[(1-{[(1R,2R,4S)-4-fluoro-4-[2-(5-fluoropyridin-2-yl)ethynyl]-2-phenylcyclohexyl]carbonyl}-4-hydroxypiperidin-4-yl)methyl]-6-(4-fluorophenoxy)pyrimidin-4-one], the IC50 in assay [1] amounted to 0.0309 µM; in assay [2], 0.0807 µM.

In the case of `Nc1c(Oc2ccc(F)cc2)ncn(CC2(O)CCN(C(=O)[C@@H]3CC[C@@](F)(C#Cc4cnccn4)C[C@H]3c3ccccc3)CC2)c1=O` [Example 137, 5-amino-3-({1-[(1R42R,4S)-4-fluoro-2-phenyl-4-[2-(pyrazin-2-yl)ethynyl]cyclohexanecarbonyl]-4-hydroxypiperidin-4-yl}methyl)-6-(4-fluorophenoxy)-3,4-dihydropyrimidin-4-one], the values for the IC50 in assay [1] and in assay [2] were 0.0246 µM and 0.0627 µM, respectively.

As to `Nc1c(Oc2ccc(F)cc2)ncn(CC2(O)CCN(C(=O)[C@@H]3CC[C@](F)(C#Cc4cnccn4)C[C@H]3c3ccccc3)CC2)c1=O` [Example 138, 5-amino-3-({1-[(1R,2R,4R)-4-fluoro-2-phenyl-4-[2-(pyrazin-2-yl)ethynyl]cyclohexanecarbonyl]-4-hydroxypiperidin-4-yl}methyl)-6-(4-fluorophenoxy)-3,4-dihydropyrimidin-4-one], the IC50 in assay [1] is 0.00657 µM; in assay [2] it was 0.0203 µM.

With `CO[C@]1(C#Cc2cncnc2)CC[C@@H](C(=O)N2CCC(O)(Cn3cnc(Oc4ccc(F)cc4)c(N)c3=O)CC2)[C@H](c2ccccc2)C1` [Example 139, 5-amino-6-(4-fluorophenoxy)-3-[(4-hydroxy-1{[(1R, 2R,4R)-4-methoxy-2-phenyl-4-[2-(pyrimidin-5-yl)ethynyl]cyclohexyl]carbonyl}piperidin-4-yl)methyl]pyrimidin-4-one], the results for the IC50 in assay [1] and in assay [2] were 0.0291 µM and 0.0497 µM, respectively.

With `Nc1c(Oc2ccc(F)cc2)ncn(CC2(O)CCN(C(=O)[C@@H]3CC[C@@](F)(C#Cc4cncnc4)C[C@H]3c3ccccc3)CC2)c1=O` [Example 140, 5-amino-3-({1-[(1R,2R,4S)-4-fluoro-2-phenyl-4-[2-(pyrimidin-5-yl)ethynyl]cyclohexanecarbonyl]-4-hydroxypiperidin-4-yl}methyl)-6-(4-fluorophenoxy)-3,4-dihydropyrimidin-1-one], the IC50 in assay [1] stood at 0.0498 µM; in assay [2], 0.0691 µM.

As to `Nc1c(Oc2ccc(F)cc2)ncn(CC2(O)CCN(C(=O)[C@@H]3CC[C@](F)(C#Cc4ncccn4)C[C@H]3c3ccccc3)CC2)c1=O` [Example 141, 5-amino-3-[(1-{[(1R,2R,4R)-4-fluoro-2-phenyl-4-[2-(pyrimidin-2-yl)ethynyl]cyclohexyl]carbonyl}-4-hydroxypiperidin-4-yl)methyl]-6-(4-fluorophenoxy)pyrimidin-4-one], the IC50 worked out at 0.0117 µM in assay [1] and 0.041 µM in assay [2].

Take `Nc1c(Oc2ccc(F)cc2)ncn(CC2(O)CCN(C(=O)[C@@H]3CC[C@@](F)(C#Cc4ncccn4)C[C@H]3c3ccccc3)CC2)c1=O` [Example 142, 5-amino-3-[(1-{[(1R,2R,4S)-4-fluoro-2-phenyl-4-[2-(pyrimidin-2-yl)ethynyl]cyclohexyl]carbonyl}-4-hydroxypiperidin-4-yl)methyl]-6-(4-fluorophenoxy)pyrimidin-4-one]: the concentration for half-maximal inhibition (IC50) in assay [1] stood at 0.0176 µM; in assay [2], 0.0588 µM.

Consider `Nc1c(Oc2ccc(F)cc2)ncn(CC2(O)CCN(C(=O)[C@@H]3CC=C(C#Cc4ncccn4)C[C@H]3c3ccccc3)CC2)c1=O` [Example 143, 5-amino-6-(4-fluorophenoxy)-3-[(4-hydroxy-1-{[(1R,6R)-6-phenyl-4-[2-(pyrimidin-2-yl)ethynyl]cyclohex-3-en-1-yl]carbonyl}piperidin-4-yl)methyl]pyrimidin-4-one], for which the results for the IC50 in assay [1] and in assay [2] were 0.0787 µM and 0.0565 µM, respectively.

Consider `Nc1c(Oc2ccc(F)cc2)ncn(CC2(O)CCN(C(=O)[C@@H]3CC[C@](F)(C#Cc4cncnc4)C[C@H]3c3ccccc3)CC2)c1=O` [Example 144, 5-amino-3-({1-[(1R,2R,4R)-4-fluoro-2-phenyl-4-[2-(pyrimidin-5-yl)ethynyl]cyclohexanecarbonyl]-4-hydroxypiperidin-4-yl}methyl)-6-(4-fluorophenyoxy)-3,4-dihydropyrimidin-4-one], for which the results for the IC50 in assay [1] and in assay [2] were 0.0122 µM and 0.021 µM, respectively.

For the origin of these results see patent US20210221785A1, “AMINO-PYRIMIDONYL DERIVATIVES, A PROCESS FOR THEIR PREPARATION AND PHARMACEUTICAL COMPOSITIONS CONTAINING THEM” (LES LABORATOIRES SERVIER, priority 2018, published 2021).
